Molecular target: T1, Estrogen Receptor (ERα) in MCF-7 human ductal carcinoma breast cell line (Homo sapiens, UniProt P03372)
T1 construct: endogenous in cells; host or cells: MCF-7
T1 sequence (P03372 1-595): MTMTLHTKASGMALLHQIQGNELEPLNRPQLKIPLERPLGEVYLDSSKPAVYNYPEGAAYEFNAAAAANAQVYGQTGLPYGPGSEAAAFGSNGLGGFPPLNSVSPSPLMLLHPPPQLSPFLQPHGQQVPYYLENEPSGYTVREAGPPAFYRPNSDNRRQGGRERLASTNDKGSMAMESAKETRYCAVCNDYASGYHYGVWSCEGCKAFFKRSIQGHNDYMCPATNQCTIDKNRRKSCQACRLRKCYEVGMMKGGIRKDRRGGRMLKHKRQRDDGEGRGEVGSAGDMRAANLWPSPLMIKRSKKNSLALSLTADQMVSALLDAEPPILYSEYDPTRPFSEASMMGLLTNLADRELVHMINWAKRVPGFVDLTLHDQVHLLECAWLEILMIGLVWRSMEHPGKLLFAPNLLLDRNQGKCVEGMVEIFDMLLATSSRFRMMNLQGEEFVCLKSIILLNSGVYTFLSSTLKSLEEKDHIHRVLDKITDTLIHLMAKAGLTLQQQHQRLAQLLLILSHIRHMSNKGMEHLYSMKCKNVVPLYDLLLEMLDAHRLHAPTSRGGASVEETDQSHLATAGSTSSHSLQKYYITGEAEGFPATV
Test: MCF-7 ER degradation assay (cell based immuno-fluorescence)
Settings: MCF-7 cells; for ER degradation ≥ 90% at 0.3 μM: ER degradation by fulvestrant at 0.3 μM is defined as 100%; for DC50: 18-22 hours incubation, 50% reduction of ERα expression, single experiment or average of two or more, read-out: MCF-7 ER degradation IC50
How it was run: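 MCF-7 human ductal carcinoma breast cells were seeded at 3.75×10^4 cells per mL (40 μL per well) in 384 well plates with phenol red free DMEM containing 2 mM L-Glutamine and 5% (v/v) Charcoal/Dextran treated foetal calf serum. After overnight culture, compounds were acoustically dispensed, incubated 18-22 hours, then cells were formaldehyde-fixed and immunostained for ERα.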

| SMILES | ER degradation ≥ 90% at 0.3 μM | DC50 [pM] |
| --- | --- | --- |
| Cc1ncsc1-c1ccc([C@H](C)NC(=O)[C@@H]2C[C@@H](O)CN2C(=O)[C@@H](NC(=O)COCCCCCOCCOc2cc(F)c([C@@H]3c4[nH]c5ccccc5c4C[C@@H](C)N3CC(C)(C)F)c(F)c2)C(C)(C)C)cc1 [Example 157, (2S,4R)-1-((S)-2-(2-((5-(2-(3,5-Difluoro-4-((1R,3R)-2-(2-fluoro-2-methylpropyl)-3-methyl-2,3,4,9-tetrahydro-1H-pyrido[3,4-b]indol-1-yl)phenoxy)ethoxy)pentyl)oxy)acetamido)-3,3-dimethylbutanoyl)-4-hydroxy-N—((S)-1-(4-(4-methylthiazol-5-yl)phenyl)ethyl)pyrrolidine-2-carboxamide] | •• | 400 |
| Cc1ncsc1-c1ccc(CNC(=O)[C@@H]2C[C@@H](O)CN2C(=O)[C@@H](NC(=O)COCCc2ccc(COc3cc(F)c([C@@H]4c5[nH]c6ccccc6c5C[C@@H](C)N4CC(C)(C)F)c(F)c3)nc2)C(C)(C)C)cc1 [Example 158, (2S,4R)-1-((S)-2-(2-(2-(6-((3,5-Difluoro-4-((1R,3R)-2-(2-fluoro-2-methylpropyl)-3-methyl-2,3,4,9-tetrahydro-1H-pyrido[3,4-b]indol-1-yl)phenoxy)methyl)pyridin-3-yl)ethoxy)acetamido)-3,3-dimethylbutanoyl)-4-hydroxy-N-(4-(4-methylthiazol-5-yl)benzyl)pyrrolidine-2-carboxamide] | • | 800 |
| Cc1ncsc1-c1ccc([C@H](C)NC(=O)[C@@H]2C[C@@H](O)CN2C(=O)[C@@H](NC(=O)COCCc2ccc(COc3cc(F)c([C@@H]4c5[nH]c6ccccc6c5C[C@@H](C)N4CC(C)(C)F)c(F)c3)nc2)C(C)(C)C)cc1 [Example 159, (2S,4R)-1-((S)-2-(2-(2-(6-((3,5-Difluoro-4-((1R,3R)-2-(2-fluoro-2-methylpropyl)-3-methyl-2,3,4,9-tetrahydro-1H-pyrido[3,4-b]indol-1-yl)phenoxy)methyl)pyridin-3-yl)ethoxy)acetamido)-3,3-dimethylbutanoyl)-4-hydroxy-N—((S)-1-(4-(4-methylthiazol-5-yl)phenyl)ethyl)pyrrolidine-2-carboxamide] | •• | 500 |
| Cc1ncsc1-c1ccc(CNC(=O)[C@@H]2C[C@@H](O)CN2C(=O)[C@@H](NC(=O)CCCOc2ccc(COc3cc(F)c([C@@H]4c5[nH]c6ccccc6c5C[C@@H](C)N4CC(C)(C)F)c(F)c3)nc2)C(C)(C)C)cc1 [Example 161, (2S,4R)-1-((S)-2-(4-((6-((3,5-Difluoro-4-((1R,3R)-2-(2-fluoro-2-methylpropyl)-3-methyl-2,3,4,9-tetrahydro-1H-pyrido[3,4-b]indol-1-yl)phenoxy)methyl)pyridin-3-yl)oxy)butanamido)-3,3-dimethylbutanoyl)-4-hydroxy-N-(4-(4-methylthiazol-5-yl)benzyl)pyrrolidine-2-carboxamide] | • | 1200 |
| Cc1ncsc1-c1ccc(CNC(=O)[C@@H]2C[C@@H](O)CN2C(=O)[C@@H](NC(=O)CCCOc2cccc(COc3cc(F)c([C@@H]4c5[nH]c6ccccc6c5C[C@@H](C)N4CC(C)(C)F)c(F)c3)n2)C(C)(C)C)cc1 [Example 162, (2S,4R)-1-((S)-2-(4-((6-((3,5-Difluoro-4-((1R,3R)-2-(2-fluoro-2-methylpropyl)-3-methyl-2,3,4,9-tetrahydro-1H-pyrido[3,4-b]indol-1-yl)phenoxy)methyl)pyridin-2-yl)oxy)butanamido)-3,3-dimethylbutanoyl)-4-hydroxy-N-(4-(4-methylthiazol-5-yl)benzyl)pyrrolidine-2-carboxamide] | • | 1800 |
| Cc1ncsc1-c1ccc(CNC(=O)[C@@H]2C[C@@H](O)CN2C(=O)[C@@H](NC(=O)COCCOCCCCCOc2cnc([C@@H]3c4[nH]c5ccccc5c4C[C@@H](C)N3CC(C)(F)F)c(F)c2)C(C)(C)C)cc1 [Example 164, (2S,4R)-1-((S)-2-(2-(2-((5-((6-((1S,3R)-2-(2,2-Difluoropropyl)-3-methyl-2,3,4,9-tetrahydro-1H-pyrido[3,4-b]indol-1-yl)-5-fluoropyridin-3-yl)oxy)pentyl)oxy)ethoxy)acetamido)-3,3-dimethylbutanoyl)-4-hydroxy-N-(4-(4-methylthiazol-5-yl)benzyl)pyrrolidine-2-carboxamide] | •• | 4200 |
| Cc1ncsc1-c1ccc(CNC(=O)[C@@H]2C[C@@H](O)CN2C(=O)[C@@H](NC(=O)COCCOCCCCCOc2cnc([C@@H]3c4[nH]c5ccccc5c4C[C@@H](C)N3CC(F)(F)F)c(F)c2)C(C)(C)C)cc1 [Example 165, (2S,4R)-1-((S)-2-(2-(2-((5-((5-Fluoro-6-((1S,3R)-3-methyl-2-(2,2,2-trifluoroethyl)-2,3,4,9-tetrahydro-1H-pyrido[3,4-b]indol-1-yl)pyridin-3-yl)oxy)pentyl)oxy)ethoxy)acetamido)-3,3-dimethylbutanoyl)-4-hydroxy-N-(4-(4-methylthiazol-5-yl)benzyl)pyrrolidine-2-carboxamide] | •• | 4400 |
| Cc1ncsc1-c1ccc(CNC(=O)[C@@H]2C[C@@H](O)CN2C(=O)[C@@H](NC(=O)COCCOCCCCCOc2cc(F)c([C@@H]3c4[nH]c5ccccc5c4C[C@@H](C)N3CC(C)(F)F)c(F)c2)C(C)(C)C)cc1 [Example 166, (2S,4R)-1-((S)-2-(2-(2-((5-(4-((1R,3R)-2-(2,2-Difluoropropyl)-3-methyl-2,3,4,9-tetrahydro-1H-pyrido[3,4-b]indol-1-yl)-3,5-difluorophenoxy)pentyl)oxy)ethoxy)acetamido)-3,3-dimethylbutanoyl)-4-hydroxy-N-(4-(4-methylthiazol-5-yl)benzyl)pyrrolidine-2-carboxamide] | •• | 800 |
| Cc1ncsc1-c1ccc(CNC(=O)[C@@H]2C[C@@H](O)CN2C(=O)[C@@H](NC(=O)COCCOCCCCCOc2cc(F)c([C@@H]3c4[nH]c5ccccc5c4C[C@@H](C)N3CC(F)F)c(F)c2)C(C)(C)C)cc1 [Example 167, (2S,4R)-1-((S)-2-(2-(2-((5-(4-((1R,3R)-2-(2,2-Difluoroethyl)-3-methyl-2,3,4,9-tetrahydro-1H-pyrido[3,4-b]indol-1-yl)-3,5-difluorophenoxy)pentyl)oxy)ethoxy)acetamido)-3,3-dimethylbutanoyl)-4-hydroxy-N-(4-(4-methylthiazol-5-yl)benzyl)pyrrolidine-2-carboxamide] | •• | 600 |

Source: patent US10519152B2, “Compounds and their use in treating cancer” (AstraZeneca AB, priority 2017, dated 2019)
